Structures are written as SMILES. Where a name gives a salt, the structure may show the parent alone. Some results are limits rather than exact numbers.

One may read the melting point as the temperature of the solid-liquid transition.

Data set [1] can be described thus: Serum ECyd level after peroral administration. In kind it is in vivo. The conditions noted are these: perorally administered to Donryu male rats; compared with ECyd. The protocol:
Separately, the compound of the present invention was perorally administered to Donryu male rats, and serum ECyd level was measured.

The subject of data set [2] is Yoshida Sarcoma cell line (rat ascites tumor). Briefly: Antitumor effect when perorally administered, Donryu rat subcutaneous tumor implantation system. In kind it is in vivo, Donryu rats. The conditions noted are these: perorally once a day for seven days at 12 μmol/kg/day; tumor weight seven days after grouping vs non-treatment group; ECyd equimolar. The protocol: Pharmacological Test Example 1 Antitumor Effect of the Compound of the Present Invention When Perorally Administered to Donryu Rat Subcutaneous Tumor Implantation System
Cells of a Yoshida Sarcoma cell line (rat ascites tumor) intraperitoneally subcultured in Donryu rats (Charles River Laboratories Japan, Inc.) were implanted subcutaneously to 5-week-old Donryu rats in the back thereof at 2×10^4 cells/0.2 mL. Four days after implantation, the body weight of each rat was measured, and the rats were grouped so that the average body weight was nearly equal between the groups (7 rats per group).
Each of the ECyd derivatives was dissolved or suspended in 0.5% hydroxypropylmethylcellulose solution, and the resultant solution or suspension was perorally administered to each rat every day from the day of grouping once a day for seven days at a dose of 12 μmol/kg/day. The ECyd derivative was evaluated three times. As a control in each test, ECyd was used in an equimolar amount as the ECyd derivative.
Seven days after the day of grouping, the tumor weight of the rat in the pharmaceutical agent administration group was measured. The tumor weight of the rat to which no pharmaceutical agent had been administered (non-treatment group) was also measured. The average tumor weight of each of the pharmaceutical agent administration group and the non-treatment group was calculated. Tumor growth inhibition rate (IR) was determined through use of the following equation, whereby antitumor effect was evaluated. IR(%)=[1−(TWtest)/(TWcont)]×100 (Equation 1) [wherein TWtest and TWcont represent the average tumor weight of the pharmaceutical agent administration group and the non-treatment group, respectively].

For another data set, the system named is human tumor cells. The conditions noted are these: intravenous 0.25 mg/kg for ten continuous days; gastric, colon, pancreatic, esophageal, bile duct, lung, breast, renal cancer strains; cited from earlier work.

Consider `C#C[C@@]1(O)[C@@H](CO)O[C@@H](n2ccc(N)nc2=O)[C@@H]1O[Si](C)(C)C(C)(C)C` [Compound 9, 1-[2-O-(tert-Butyldimethylsilyl)-3-C-ethynyl-1-β-D-ribofuranosyl]cytosine], for which the “serum ECyd level (concentration in blood)” value (shortened to “serum ECyd level”) in data set [1] is “particularly high concentration in blood”. Moreover, the “Tumor growth inhibition rate IR (%)” value in data set [2] was 99.6%. `C#C[C@@]1(O)[C@@H](CO)O[C@@H](n2ccc(N)nc2=O)[C@@H]1O` [ECyd, 3′-ethynylcytidine]: the anti-tumor effect result in the data set on human tumor cells is “excellent anti-tumor effect more greatly than any of fluoropyrimidine-based drugs”. Further, the “Tumor growth inhibition rate IR (%)” value in data set [2] worked out at 46.6%.

Turning to `C#C[C@@]1(O)[C@@H](CO[Si](C(C)C)(C(C)C)C(C)C)O[C@@H](n2ccc(N)nc2=O)[C@@H]1O` [Compound 3, 1-[5-O-Triisopropylsilyl-3-C-ethynyl-β-D-ribofuranosyl]cytosine], the melting point is > 219 °C (dec.). Also, the “serum ECyd level” value in data set [1] is listed as “particularly high concentration in blood”. The “Tumor growth inhibition rate IR (%)” value in data set [2] is 93.4%. `C#C[C@@]1(O)[C@@H](CO[Si](C(C)C)(C(C)C)C(C)C)O[C@@H](n2ccc(NC(=O)CN(C)C)nc2=O)[C@@H]1O` [Compound 18, 1-[5-O-(Triisopropylsilyl)-3-C-ethynyl-β-ribofuranosyl]-4-N-(N,N-dimethylglycyl)cytosine]: the melting point lay in the range of 146 to 148 °C. In data set [1], the “serum ECyd level” value is “particularly high concentration in blood”. For `C#C[C@@]1(O)[C@@H](CO[Si](C)(C)C(C)(C)C)O[C@@H](n2ccc(NC(=O)OC(C)(C)C)nc2=O)[C@@H]1O`, the melting point lay in the range of 103 to 110 °C. With `C#C[C@@]1(O)[C@@H](CO[Si](c2ccccc2)(c2ccccc2)C(C)(C)C)O[C@@H](n2ccc(N)nc2=O)[C@@H]1O` (hydrate or solvate), the melting point lay within 210 to 213 °C.

With `C#C[C@@]1(O)[C@@H](CO[Si](C)(C)c2ccccc2)O[C@@H](n2ccc(N)nc2=O)[C@@H]1O`, the melting point was 171 to 173 °C. As to `C#C[C@@]1(O)[C@@H](CO[Si](C)(C)C(C)(C)C)O[C@@H](n2ccc(NC(=O)CN(C)C)nc2=O)[C@@H]1O` [Compound 17, 1-[5-O-(tert-Butyldimethylsilyl)-3-C-ethynyl-β-D-ribofuranosyl]-4-N-(N,N-dimethylglycyl)cytosine], the melting point is 180 to 185 °C. In addition, in data set [1], the “serum ECyd level” value is reported as “particularly high concentration in blood”.

In the case of `C#C[C@@]1(O)[C@@H](CO[Si](C)(C)CCCCCCCC)O[C@@H](n2ccc(N)nc2=O)[C@@H]1O` [Compound 4, 1-[5-O-(Dimethyl-n-octylsilyl)-3-C-ethynyl-β-D-ribofuranosyl]cytosine], the melting point was 175 to 177 °C (dec.). Also, the “serum ECyd level” value in data set [1] was “particularly high concentration in blood”. The matching figures for `C#C[C@@]1(O)[C@@H](CO[Si](C)(C)C(C)(C)C)O[C@@H](n2ccc(NC(=O)CCCCCC)nc2=O)[C@@H]1O` [Compound 15, 1-[5-O-(tert-Butyldimethylsilyl)-3-C-ethynyl-β-D-ribofuranosyl]-4-N-heptanoylcytosine]: 134 to 137 °C and “particularly high concentration in blood”. `C#C[C@@]1(O)[C@@H](CO)O[C@@H](n2ccc(N)nc2=O)[C@@H]1O[Si](C)(C)C(C)(C)C(C)C` [Compound 14, 1-(2-O-Dimethylthexylsilyl-3-C-ethynyl-1-β-D-ribofuranosyl)cytosine] came in with a melting point of 218 °C. Besides, the “serum ECyd level” value in data set [1] was “particularly high concentration in blood”. Moreover, the “Tumor growth inhibition rate IR (%)” value in data set [2] amounted to 99.8%. `C#C[C@@]1(O)[C@@H](CO)O[C@@H](n2ccc(N)nc2=O)[C@@H]1O[Si](C)(C)C(C)(C)C(C)C` (as salt: trifluoroacetic acid salt) [Compound 13, 1-(2-O-Dimethylthexylsilyl-3-C-ethynyl-1-β-D-ribofuranosyl)cytosine trifluoroacetic acid salt] showed a melting point of 182 °C. On the same count and under the same terms, under `C#C[C@@]1(O)[C@@H](CO[Si](CC)(CC)CC)O[C@@H](n2ccc(N)nc2=O)[C@@H]1O` stands 202 to 204 °C. Same read-out and setting: under `C#C[C@@]1(O)[C@@H](CO[Si](C)(C)C(C)(C)C(C)C)O[C@@H](n2ccc(N)nc2=O)[C@@H]1O` stands > 197 °C (dec.). `C#C[C@@]1(O)[C@@H](CO)O[C@@H](n2ccc(N)nc2=O)[C@@H]1O[Si](C(C)C)(C(C)C)C(C)C` [Compound 11, 1-(2-O-Triisopropylsilyl-3-C-ethynyl-1-β-D-ribofuranosyl)cytosine]: the “serum ECyd level” value in data set [1] is recorded as “particularly high concentration in blood”. Besides, the “Tumor growth inhibition rate IR (%)” value in data set [2] stood at 88.3%. `C#C[C@@]1(O)[C@@H](CO[Si](C)(C)C(C)(C)C)O[C@@H](n2ccc(N)nc2=O)[C@@H]1O` [Compound 1, 1-[5-O-(tert-Butyldimethylsilyl)-3-C-ethynyl-β-D-ribofuranosyl]cytosine]: the melting point was 251 to 256 °C (dec.). Moreover, the “serum ECyd level” value in data set [1] is recorded as “particularly high concentration in blood”. In addition, the “Tumor growth inhibition rate IR (%)” value in data set [2] was 94.6%. `C#C[C@@]1(O)[C@@H](CO[Si](C)(C)C(C)(C)C(C)C)O[C@@H](n2ccc(N)nc2=O)[C@@H]1O[Si](C)(C)C(C)(C)C(C)C` [Compound 12, 1-(2,5-bis-O-Dimethylthexylsilyl-3-C-ethynyl-1-β-D-ribofuranosyl)cytosine] displayed a melting point of 106 to 108 °C. Further, the “serum ECyd level” value in data set [1] is “particularly high concentration in blood”. In data set [2], the “Tumor growth inhibition rate IR (%)” value was 91.5%.
